Experimental data: ChEMBL document CHEMBL1155669, “Herbacic acid, a simple prototype of 5,5,5-trichloroleucine metabolites from the sponge Dysidea herbacea” (J Nat Prod, 2000)
Calls of active or inactive are those of the source.

Columns and labels:
Assay type in all cases: functional, organism-based
Candida albicans [1] = experiment: Antifungal activity against Candida albicans ATCC 4503 at <100 ug/mL by microbroth dilution method
Nakaseomyces glabratus = experiment: Antifungal activity against Candida glabrata at <100 ug/mL by microbroth dilution method
Candida albicans [2] = experiment: Antifungal activity against fluconazole-resistant Candida albicans 96-489 at <100 ug/mL by microbroth dilution method
Pichia kudriavzevii = experiment: Antifungal activity against Candida krusei at <100 ug/mL by microbroth dilution method

Measured: Activity

C[C@@H](C/C=C/C(=O)N(C)[C@@H](C[C@H](C)C(Cl)(Cl)Cl)C(=O)O)C(Cl)(Cl)Cl
inactive: all assays above
